Experiments:
64SP stem like cells = conditions: combined with radiation; cited from earlier work
[1] = system: O^6-methylguanine-DNA-methyltransferase (MGMT) expression; conditions: combined with temozolomide (TMZ); cited from earlier work
[2] = Clinical adverse events observed with troriluzole; conditions: human, in vivo
From the text: In general, mild liver enzymes elevations attributed to troriluzole occur due to enzyme induction and are likely to resolve spontaneously within 12 weeks without any changes in the dose of troriluzole. However, the investigator should evaluate the subject, as appropriate.

glioma = conditions: cited from earlier work

Nc1nc2ccc(OC(F)(F)F)cc2s1 [Riluzole, riluzole]
sensitivity to radiation (64SP stem like cells): enhances sensitivity to radiation
effects of TMZ [1]: enhances the effects of TMZ via suppression of O^6-methylguanine-DNA-methyltransferase (MGMT) expression

CN(CC(=O)Nc1nc2ccc(OC(F)(F)F)cc2s1)C(=O)CNC(=O)CN [Troriluzole, troriluzole]
most commonly observed adverse events [2]: Mild increases in liver enzymes
concentration of CD4+ T cells in TME (glioma; IF data, after troriluzole treatment): increased concentration of CD4+ T cells in TME
proliferation of tumor-infiltrating T cells (glioma; troriluzole treatment): promoted proliferation of tumor-infiltrating T cells
survival (glioma; troriluzole treatment): induced a survival benefit
survival and T regulatory cells in combination with anti-PD-1 (glioma; with anti-PD-1 immunotherapy, glioma tumor microenvironment (TME)): synergized with anti-PD-1 immunotherapy to further improve survival and reduce T regulatory cells

Source: patent US20250375427A1 (Biohaven Therapeutics Ltd., priority 2022, published 2025)
